Test results: patent US4797415A, “Benzofuran derivatives and use thereof for treating hyperuricemia” (Kotobuki Seiyaku Company Limited, priority 1982, dated 1989)
Where two headings read alike, the source gives them in different places.

System: phenol red retention in circulation
Experiment: Uricosuric activity by phenol red retention test in mice
Type: in vivo, male mice
Details: mice, 30 min before 75 mg/kg phenol red, blood 60 min after phenol red; for response vs control in vivo at 200 mg/kg: Mus musculus, 1 h
Protocol: Blood samples were collected from the retro-orbital plexus into heparinized capillary tubes 60 minutes after the phenol red injection. The retention of phenol red in circulation was determined according to the method described in J. Med. Pharmaceu.
Benzobromarone was administered subcutaneously to mice in an amount of 200 mg./kg. as a control or standard.

[1] = sc, s.c. 200 mg/kg, read-out: phenol red retention, percentage by comparison with the control group, S.C. (200 mg/kg)
[2] = po, p.o. 200 mg/kg, read-out: phenol red retention, percentage by comparison with the control group, P.O. (200 mg/kg)

With `CCOC(=O)COc1ccc(C(=O)c2c(CC)sc3ccccc23)cc1` [Compound 30, Ethyl 4-(2-ethyl-3-benzothenoyl)phenoxyacetate] the response vs control in vivo at 200 mg/kg [1] was 85.7 ± 14.3%.
With `CCOC(=O)COc1ccc(C(=O)c2c(CC)oc3ccccc23)c(C)c1C` [Compound 34, Ethyl 2,3-dimethyl-4-(2-ethyl-3-benzofuroyl)phenoxyacetate] the response vs control in vivo at 200 mg/kg [2] was 124 ± 28.6%.
Molecule `CCc1oc2ccccc2c1C(=O)c1ccc(OCC(N)=O)cc1` [Compound 7, 4-(2-ethyl-3-benzofuroyl)phenoxyacetamide] has a response vs control in vivo at 200 mg/kg [2] of 104 ± 8.3% and a response vs control in vivo at 200 mg/kg [1] of 123 ± 23.1%.
With `CCc1oc2ccccc2c1C(=O)c1cc(C)c(OCc2nnn[nH]2)cc1C` [Compound 47, 5-[2,5-dimethyl-4-(2-ethyl-3-benzofuroyl)phenoxymethyl]tetrazole] the response vs control in vivo at 200 mg/kg [2] was 232 ± 28%.
In the case of `CCc1oc2ccccc2c1C(=O)c1ccc(OCC(=O)OC)cc1` [Compound 11, Methyl 4-(2-ethyl-3-benzofuroyl)phenoxyacetate], the response vs control in vivo at 200 mg/kg [1] is reported as 114 ± 9.5%.
With `CCOC(=O)COc1ccc(C(=O)c2c(CC)oc3ccccc23)cc1[N+](=O)[O-]` [Compound 27, Ethyl 2-nitro-4-(2-ethyl-3-benzofuroyl)phenoxyacetate] the response vs control in vivo at 200 mg/kg [1] was 111 ± 11.1%.
`CCc1oc2ccccc2c1C(=O)c1ccc(OCc2nnn[nH]2)cc1` [Compound 43, 5-[4-(2-ethyl-3-benzofuroyl)phenoxymethyl]tetrazole] showed a response vs control in vivo at 200 mg/kg [2] of 430 ± 80%.
With `CCc1oc2ccccc2c1C(=O)c1ccc(OCC(=O)NCC(=O)OC)cc1` [Compound 9, Methyl 4-(2-ethyl-3-benzofuroyl)phenoxyacetoglycinate] the response vs control in vivo at 200 mg/kg [2] was 153 ± 15.8% and the response vs control in vivo at 200 mg/kg [1] was 125 ± 18.8%.
`CCc1oc2ccccc2c1C(=O)c1ccc(OCc2nnn[nH]2)c(C)c1` [Compound 45, 5-[2-methyl-4-(2-ethyl-3-benzofuroyl)phenoxymethyl]tetrazole] showed a response vs control in vivo at 200 mg/kg [2] of 218 ± 21.4%.
Work on `CCOC(=O)COc1ccc(C(OCC)c2c(CC)oc3ccccc23)cc1` (stereo not drawn) [Compound 14] yielded a response vs control in vivo at 200 mg/kg [2] of 120 ± 15% and a response vs control in vivo at 200 mg/kg [1] of 135 ± 34.6%.
With `CCc1oc2ccccc2c1C(=O)c1ccc(OCC(=O)NCC(N)=O)cc1` [Compound 10, 4-(2-ethyl-3-benzofuroyl)phenoxyacetoglycinamide] the response vs control in vivo at 200 mg/kg [2] was 132 ± 26.3% and the response vs control in vivo at 200 mg/kg [1] was 123 ± 23.1%.
Molecule `Cc1oc2ccccc2c1C(=O)c1ccc(O)cc1` [Compound 16, 2-methyl-3-(4-hydroxybenzoyl)benzofuran] has a response vs control in vivo at 200 mg/kg [2] of 112 ± 12.5% and a response vs control in vivo at 200 mg/kg [1] of 111 ± 11.1%.
`CCc1oc2ccccc2c1C(=O)c1cc(C)c(O)cc1C` [Compound 36, 2-ethyl-3-(2,5-dimethyl-4-hydroxybenzoyl)benzofuran] gave a response vs control in vivo at 200 mg/kg [2] of 131 ± 15.6%.
With `CCc1oc2ccccc2c1C(=O)c1ccc(OCC(=O)OC)c(C)c1C` [Compound 33, Methyl 2,3-dimethyl-4-(2-ethyl-3-benzofuroyl)phenoxyacetate] the response vs control in vivo at 200 mg/kg [2] was 133 ± 15.6%.
With `CCOC(=O)COc1ccc(C(=O)c2c(CC)oc3ccccc23)cc1C` [Compound 24, Ethyl 2-methyl-4-(2-ethyl-3-benzofuroyl)phenoxyacetate] the response vs control in vivo at 200 mg/kg [1] was 172 ± 27.7%.
`CCc1oc2ccccc2c1C(=O)c1cc(C)c(OCC(=O)O)c(C)c1` [Compound 42, 2,6-dimethyl-4-(2-ethyl-3-benzofuroyl)phenoxyacetic acid] gave a response vs control in vivo at 200 mg/kg [2] of 394 ± 44.4%.
For `CCc1oc2ccccc2c1C(=O)c1ccc(O)c(C)c1` [Compound 23, 2-ethyl-3-benzofuranyl 3-methyl-4-hydroxyphenyl ketone], the response vs control in vivo at 200 mg/kg [1] was 81 ± 14.3%.
`CCc1oc2ccccc2c1C(=O)c1ccc(OC(C)C(=O)O)cc1` (stereo not drawn) [Compound 5, 4-(2-ethyl-3-benzofuroyl)phenoxy-2-methylacetic acid] showed a response vs control in vivo at 200 mg/kg [2] of 176 ± 17.6% and a response vs control in vivo at 200 mg/kg [1] of 158 ± 15.1%.
`CCc1sc2ccccc2c1C(=O)c1ccc(OCC(=O)O)cc1` [Compound 31, 4-(2-ethyl-3-benzothenoyl)phenoxyacetic acid] gave a response vs control in vivo at 200 mg/kg [2] of 162 ± 31.3% and a response vs control in vivo at 200 mg/kg [1] of 144 ± 22.2%.
`CCc1oc2ccccc2c1C(=O)c1cc(C)c(O)c(C)c1` [Compound 40, 2-ethyl-3-(3,5-dimethyl-4-hydroxybenzoyl)benzofuran] showed a response vs control in vivo at 200 mg/kg [2] of 183 ± 22.2%.
`CCc1oc2ccccc2c1C(=O)c1cc(C)c(OCc2nnn[nH]2)c(C)c1` [Compound 48, 5-[2,6-dimethyl-4-(2-ethyl-3-benzofuroyl)phenoxymethyl]tetrazole] showed a response vs control in vivo at 200 mg/kg [2] of 296 ± 56%.
With `CCc1oc2ccccc2c1C(O)c1ccc(O)cc1` (stereo not drawn) [Compound 12, (2-ethyl-3-benzofuranyl)-4-hydroxyphenylmethanol] the response vs control in vivo at 200 mg/kg [1] was 100 ± 21.4%.
`C=C(CC(=O)c1c(CC)oc2ccccc12)C(=O)O` [Compound 21, 2-methylene-4-oxo-4-(2-ethyl-3-benzofuranyl)butyric acid] was tested, and the response vs control in vivo at 200 mg/kg [2] was 165 ± 21.7% and the response vs control in vivo at 200 mg/kg [1] was 100 ± 13.6%.
For `CCc1oc2ccccc2c1C(=O)c1ccc(OCc2nnn[nH]2)c(C)c1C` [Compound 46, 5-[2,3-dimethyl-4-(2-ethyl-3-benzofuroyl)phenoxymethyl]tetrazole], the response vs control in vivo at 200 mg/kg [2] was 240 ± 64%.
With `CCOC(=O)COc1ccc(C(=O)c2c(C)oc3ccccc23)cc1` [Compound 17, Ethyl 4-(2-methyl-3-benzofuroyl)phenoxyacetate] the response vs control in vivo at 200 mg/kg [2] was 105 ± 10% and the response vs control in vivo at 200 mg/kg [1] was 115 ± 19.2%.
With `CCc1oc2ccccc2c1C(=O)c1ccc(O)c([N+](=O)[O-])c1` [Compound 26, 2-ethyl-3-benzofuranyl 3-nitro-4-hydroxyphenyl ketone] the “phenol red retention, percentage by comparison with the control group, S.C. (given at a dose of 100 mg/kg)” value (s.c. 100 mg/kg (footnote *)) was 222.2 ± 27.7%.
In the case of `CCc1oc2ccccc2c1C(=O)c1ccc(OCCC(=O)O)cc1` [Compound 4, 4-(2-ethyl-3-benzofuroyl)phenoxypropionic acid], the response vs control in vivo at 200 mg/kg [1] is reported as 143 ± 19%.
With `CCc1sc2ccccc2c1C(=O)c1ccc(O)cc1` [Compound 29, 2-ethyl-3-(4-hydroxybenzoyl)thianaphthene] the response vs control in vivo at 200 mg/kg [1] was 100 ± 21.4%.
`CCOC(=O)COc1ccc(C(=O)c2c(CC)oc3ccccc23)cc1` [Compound 6, Ethyl 4-(2-ethyl-3-benzofuroyl)phenoxyacetate] was tested, and the response vs control in vivo at 200 mg/kg [2] was 119 ± 2.3% and the response vs control in vivo at 200 mg/kg [1] was 207 ± 32.5%.
For `CCOC(=O)COc1c(C)cc(C(=O)c2c(CC)oc3ccccc23)cc1C` [Compound 41, Ethyl 2,6-dimethyl-4-(2-ethyl-3-benzofuroyl)phenoxyacetate], the response vs control in vivo at 200 mg/kg [2] was 183 ± 27.8%.
In the case of `CCc1oc2ccccc2c1C(=O)c1ccc(O)c(Cl)c1` [Compound 19, 2-ethyl-3-benzofuranyl 3-chloro-4-hydroxyphenyl ketone], the response vs control in vivo at 200 mg/kg [1] is reported as 105 ± 19%.
Molecule `CCOC(=O)COc1ccc(C(O)c2c(CC)oc3ccccc23)cc1` (stereo not drawn) [Compound 13, Ethyl 4-(2-ethyl-3-hydroxymethylbenzofuranyl)phenoxyacetate] has a response vs control in vivo at 200 mg/kg [1] of 114 ± 14.3%.
For `CCc1oc2ccccc2c1C(=O)c1ccccc1OCC(=O)O` [Compound 1, 2-(2-ethyl-3-benzofuroyl)phenoxyacetic acid], the response vs control in vivo at 200 mg/kg [1] was 152 ± 15.2%.
`Cc1oc2ccccc2c1C(=O)c1ccc(OCC(=O)O)cc1` [Compound 18, 4-(2-methyl-3-benzofuroyl)phenoxyacetic acid] was tested, and the response vs control in vivo at 200 mg/kg [2] was 135 ± 40% and the response vs control in vivo at 200 mg/kg [1] was 112 ± 15.4%.
